Source: ChEMBL document CHEMBL2331140, “A novel series of tacrine-selegiline hybrids with cholinesterase and monoamine oxidase inhibition activities for the treatment of Alzheimer's disease” (Eur J Med Chem, 2013)

What was measured:
[1] = target: T1, Amine oxidase [flavin-containing] B (Homo sapiens, UniProt P27338); details: read-out: INH
T1 sequence (P27338 whole entry): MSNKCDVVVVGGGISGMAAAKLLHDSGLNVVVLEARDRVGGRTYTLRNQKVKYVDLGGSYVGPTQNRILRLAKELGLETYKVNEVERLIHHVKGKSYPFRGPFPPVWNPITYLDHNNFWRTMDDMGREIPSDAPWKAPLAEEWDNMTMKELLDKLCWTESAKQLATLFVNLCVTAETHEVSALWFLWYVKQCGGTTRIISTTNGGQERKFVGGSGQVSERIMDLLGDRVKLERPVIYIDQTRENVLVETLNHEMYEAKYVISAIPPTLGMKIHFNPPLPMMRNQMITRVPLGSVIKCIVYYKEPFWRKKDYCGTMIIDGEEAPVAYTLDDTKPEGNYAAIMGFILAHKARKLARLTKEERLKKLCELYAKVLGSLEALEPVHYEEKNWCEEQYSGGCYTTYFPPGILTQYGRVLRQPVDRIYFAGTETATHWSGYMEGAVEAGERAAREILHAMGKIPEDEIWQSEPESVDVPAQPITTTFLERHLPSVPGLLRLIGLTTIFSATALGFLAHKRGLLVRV

[2] = target: T1, Amine oxidase [flavin-containing] B; details: 20 min, read-out: INH
[3] = target: Cholinesterase (Equus caballus, UniProt P81908)
Chain of Cholinesterase (P81908 whole entry): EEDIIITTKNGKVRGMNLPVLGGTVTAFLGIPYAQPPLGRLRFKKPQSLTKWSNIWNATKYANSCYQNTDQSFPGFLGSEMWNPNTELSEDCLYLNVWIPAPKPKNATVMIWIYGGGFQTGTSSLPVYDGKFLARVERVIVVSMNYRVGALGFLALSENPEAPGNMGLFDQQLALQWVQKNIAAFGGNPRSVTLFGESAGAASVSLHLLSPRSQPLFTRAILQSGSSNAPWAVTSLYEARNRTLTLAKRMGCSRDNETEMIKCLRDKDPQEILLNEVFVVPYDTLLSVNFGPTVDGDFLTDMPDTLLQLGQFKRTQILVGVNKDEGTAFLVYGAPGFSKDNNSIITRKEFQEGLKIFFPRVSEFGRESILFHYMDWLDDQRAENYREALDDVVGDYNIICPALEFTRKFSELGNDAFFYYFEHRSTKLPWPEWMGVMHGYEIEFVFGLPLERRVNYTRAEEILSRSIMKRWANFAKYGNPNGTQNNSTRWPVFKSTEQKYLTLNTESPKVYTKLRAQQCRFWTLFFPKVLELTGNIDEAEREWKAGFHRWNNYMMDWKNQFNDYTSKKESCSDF
Description: Inhibition of horse serum BChE using butyrylthiocholine chloride as substrate after 15 mins by Ellman's method

[4] = target: Acetylcholinesterase (Electrophorus electricus, UniProt O42275)
Chain of Acetylcholinesterase (O42275 whole entry): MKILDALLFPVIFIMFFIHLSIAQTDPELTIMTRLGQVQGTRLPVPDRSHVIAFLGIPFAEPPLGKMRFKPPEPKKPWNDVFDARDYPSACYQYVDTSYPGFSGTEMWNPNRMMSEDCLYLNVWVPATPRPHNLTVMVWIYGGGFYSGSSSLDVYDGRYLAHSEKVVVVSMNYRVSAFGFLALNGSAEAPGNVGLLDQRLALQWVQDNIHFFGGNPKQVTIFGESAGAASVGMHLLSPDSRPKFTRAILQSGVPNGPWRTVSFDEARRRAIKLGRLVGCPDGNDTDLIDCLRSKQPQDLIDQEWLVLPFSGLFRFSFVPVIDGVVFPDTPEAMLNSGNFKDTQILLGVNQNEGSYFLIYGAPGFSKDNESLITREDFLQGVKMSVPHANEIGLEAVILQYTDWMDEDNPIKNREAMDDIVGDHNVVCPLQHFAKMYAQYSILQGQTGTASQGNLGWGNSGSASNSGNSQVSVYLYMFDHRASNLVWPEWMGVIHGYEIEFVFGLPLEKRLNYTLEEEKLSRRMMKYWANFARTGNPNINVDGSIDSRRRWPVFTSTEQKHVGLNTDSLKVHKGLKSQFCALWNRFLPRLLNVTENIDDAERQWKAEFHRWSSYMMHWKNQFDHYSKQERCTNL
Description: Inhibition of electric eel AChE using acetylthiocholine chloride as substrate after 15 mins by Ellman's method

[5] = target: T1, Amine oxidase [flavin-containing] B
Description: Inhibition of recombinant human MAO-B using p-benzylamine substrate preincubated for 15 mins before substrate addition measured after 20 mins by fluorescence assay

[6] = target: T2, Amine oxidase [flavin-containing] A (Homo sapiens, UniProt P21397)
T2 sequence (P21397 whole entry): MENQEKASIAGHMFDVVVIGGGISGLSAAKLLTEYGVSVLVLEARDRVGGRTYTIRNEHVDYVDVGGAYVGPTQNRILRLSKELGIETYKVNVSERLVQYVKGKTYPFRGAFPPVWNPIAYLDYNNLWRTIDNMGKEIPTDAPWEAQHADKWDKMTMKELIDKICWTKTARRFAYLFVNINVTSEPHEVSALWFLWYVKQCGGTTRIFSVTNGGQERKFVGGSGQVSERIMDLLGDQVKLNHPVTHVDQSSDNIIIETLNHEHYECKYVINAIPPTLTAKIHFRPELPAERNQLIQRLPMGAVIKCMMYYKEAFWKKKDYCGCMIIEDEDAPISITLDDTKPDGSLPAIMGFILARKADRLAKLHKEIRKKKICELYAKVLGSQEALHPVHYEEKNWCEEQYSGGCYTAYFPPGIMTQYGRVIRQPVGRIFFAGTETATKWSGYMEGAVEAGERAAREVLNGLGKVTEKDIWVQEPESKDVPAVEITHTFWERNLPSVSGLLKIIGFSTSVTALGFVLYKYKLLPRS
Description: Inhibition of recombinant human MAO-A using p-tyramine substrate preincubated for 15 mins before substrate addition measured after 20 mins by fluorescence assay

[7] = Selectivity index, ratio of IC50 for recombinant human MAO-A to IC50 for recombinant human MAO-B

Row | SMILES | inhibition at 0.2 µM [1] | inhibition at 0.2 µM [2] | IC50 [3] | IC50 [4] | IC50 [5] | IC50 [6] | Ratio IC50 [7]
1 | C#CCN(C)[C@H](C)Cc1ccc(OCCCCCCCCCNc2c3c(nc4ccccc24)CCCC3)cc1 | 81.6% | 70.8% | 0.00937 µM | 0.0226 µM | – | – | –
2 | C#CCN(C)[C@H](C)Cc1ccc(OCCCCCNc2c3c(nc4cc(Cl)ccc24)CCCC3)cc1 | – | – | 0.0186 µM | 0.082 µM | 6.21 µM | 2.86 µM | 0.5
3 | C#CCN(C)[C@H](C)Cc1ccc(OCCCCCCCCNc2c3c(nc4ccccc24)CCCC3)cc1 | – | – | 0.0355 µM | 0.147 µM | 0.167 µM | 0.591 µM | 3.5
4 | C#CCN(C)[C@H](C)Cc1ccc(OCCCCCCCCNc2c3c(nc4cc(Cl)ccc24)CCCC3)cc1 | – | – | 0.0176 µM | 0.0554 µM | 0.129 µM | 0.193 µM | 1.5
5 | C#CCN(C)[C@H](C)Cc1ccc(OCCCNc2c3c(nc4ccccc24)CCCC3)cc1 | – | – | 0.0414 µM | 0.0361 µM | 4.46 µM | 43.4 µM | 9.7
6 | C#CCN(CCCCCCNc1c2c(nc3ccccc13)CCCC2)[C@H](C)Cc1ccc(OC)cc1 | – | – | 0.0287 µM | 0.456 µM | 18.1 µM | 33.8 µM | 1.9
7 | C#CCN(C)[C@H](C)Cc1ccc(OCCCCCCCCCCNc2c3c(nc4ccccc24)CCCC3)cc1 | – | – | 0.00203 µM | 0.0232 µM | 0.346 µM | 0.313 µM | 0.9
8 | C#CCN(C)[C@H](C)Cc1ccc(OCCCCCCNc2c3c(nc4ccccc24)CCCC3)cc1 | – | – | 0.0161 µM | 0.138 µM | 0.209 µM | 0.398 µM | 1.9
9 | C#CCN(C)[C@H](C)Cc1ccc(OCCCCCCNc2c3c(nc4cc(Cl)ccc24)CCCC3)cc1 | – | – | 0.0188 µM | 0.0793 µM | 0.519 µM | 0.521 µM | 1
10 | C#CCN(C)[C@H](C)Cc1ccc(OCCCCNc2c3c(nc4ccccc24)CCCC3)cc1 | – | – | 0.0396 µM | 0.053 µM | 8.55 µM | 7 µM | 0.8
11 | C#CCN(C)[C@H](C)Cc1ccc(OCCCNc2c3c(nc4cc(Cl)ccc24)CCCC3)cc1 | – | – | 0.066 µM | 0.0142 µM | 11.1 µM | 9.05 µM | 0.8
12 | C#CCN(C)[C@H](C)Cc1ccc(OCCCCCNc2c3c(nc4ccccc24)CCCC3)cc1 | – | – | 0.0235 µM | 0.0776 µM | 2.4 µM | 1.26 µM | 0.5
13 | C#CCN(C)[C@H](C)Cc1ccc(OCCNc2c3c(nc4ccccc24)CCCC3)cc1 | – | – | 0.0506 µM | 0.0831 µM | 0.693 µM | 4.86 µM | 7
